Values quoted from earlier work as cited in article PMC9762682, “Tocotrienols: Exciting Biological and Pharmacological Properties of Tocotrienols and Naturally Occurring Compounds, Part II” (Annals of clinical case reports, 2022).
Read-outs that look alike come from different tables or passages of the source.

Columns and labels:
[1] = test system: hypercholesterolemic subjects
[2] = test system: plasma TNF-α, IL-2, IL-4, IL-6, IL-8, IL-10; design: method as in earlier work; conditions: 250 mg/d + AHA Step-1 diet; baseline = 100
[3] = test system: gene expression of TNF-α, IL-2, IL-4, IL-6, IL-8, IL-10; design: method as in earlier work; conditions: 250 mg/d + AHA Step-1 diet; baseline = 100
plasma miRNAs [4] = test system: plasma miRNAs; design: method as in earlier work
plasma miRNAs [5] = test system: plasma miRNAs; design: method as in ref 14 = [14]; PMID 27493840; doi:10.4172/2155-9880.1000434; 14. Qureshi AA , Khan DA , Saleem S , Silswal N , Trias AM , Tan B , Pharmacokinetics and bioavailability of Annatto δ-tocotrienol in healthy fed subjects . J Clin Exp Cardiol . 2015; 6 : 11 . 10.417; conditions: for plasma miR122a / plasma miR-1 / plasma miR-7 / plasma miR-9 / plasma miR-15b / plasma miR-17-5p / plasma miR-19a / plasma miR-19b / plasma miR-24 / plasma miR-26a / plasma miR-34a / plasma miR-106a / plasma miR-107 / plasma miR-132 / plasma miR-143 / plasma miR-145 / plasma miR-148a / plasma miR-181a / plasma miR-182 / plasma miR-192 / plasma miR-194 / plasma miR-196a / plasma miR-199a / plasma miR-204 / plasma miR-205 / plasma miR-222 / plasma miR-342: 0-h = 100
[6] = test system: cytokines, adiponectin, TGF-β1, leptin; design: method as in ref 14 = [14]; PMID 27493840; doi:10.4172/2155-9880.1000434; 14. Qureshi AA , Khan DA , Saleem S , Silswal N , Trias AM , Tan B , Pharmacokinetics and bioavailability of Annatto δ-tocotrienol in healthy fed subjects . J Clin Exp Cardiol . 2015; 6 : 11 . 10.417; conditions: δ-tocotrienol treatment, pharmacokinetic study
[7] = test system: 20S rabbit muscle proteasome
TNF-α [8] = conditions: LPS-induced macrophages of wild type (C57BL/6) control group
TNF-α [9] = conditions: LPS-induced macrophages of PPAR-α knockout female mice
Hela cells = test system: Hela cells; design: method as in PMID 29606130; value at effective dose: unit not given here;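 as to IC50: anti-proliferation of cancer cells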
Prostate cancer cells = test system: Prostate cancer cells; design: method as in PMID 29606130; value at effective dose: scale not given here;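 as to IC50: anti-proliferation of cancer cells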
Melanoma cells = test system: Melanoma cells; design: method as in PMID 29606130
T-cells (Jurkat) = test system: T-cells (Jurkat); design: method as in PMID 29606130
[10] = 250 mg/d + AHA Step-1 diet, baseline = 100
[11] = δ-tocotrienol treatment, pharmacokinetic study
[12] = serum, two capsules/d for 24-weeks

## CC(C)=CCC/C(C)=C/CC/C(C)=C/CC[C@]1(C)CCc2cc(O)cc(C)c2O1 [δ-Tocotrienol]
[1]; 250 mg/d + AHA Step-1 diet
  reduction of LDL-cholesterol (maximum effect): 18%
  reduction of total cholesterol (maximum effect): 15%
  reduction of triglycerides (maximum effect): 14%
[1]; 125-750 mg/d + AHA Step-1 diet
  effect on HDL-cholesterol: without affecting
[1]; above 500 mg/d dose + AHA Step-1 diet
  levels of lipid parameters: induction
[2]
  plasma IL-2: 55.5 ± 0.71
  plasma IL-4: 49.0 ± 1.41
  plasma IL-6: 38.5 ± 2.21
  plasma IL-8: 43.5 ± 0.71
  plasma IL-10: 63.5 ± 2.12
  plasma TNF-α: 48.5 ± 0.7
[3]
  Gene Expression IL-2: 91.5 ± 3.54
  Gene Expression IL-4: 77.5 ± 2.12
  Gene Expression IL-6: 73.5 ± 0.71
  Gene Expression IL-8: 92.0 ± 2.83
  Gene Expression IL-10: 89.0 ± 1.41
  Gene Expression TNF-α: 84.5 ± 0.71^a, ^**
Plasma miRNAs [4]; [10]
  plasma miRNA-7a: 168.0 ± 1.41
  plasma miRNA-15a: 179.0 ± 1.41
  plasma miRNA-20a: 168.00 ± 2.24
  plasma miRNA-21: 143.0 ± 2.83
  plasma miRNA-29a: 142.0 ± 2.83
  plasma miRNA-92a: 153.5 ± 2.12
  plasma miRNA-200: 146.0 ± 1.41
  plasma miRNA-206: 150 ± 2.83
Plasma miRNAs [4]; compared to baseline in hypercholesterolemic subjects
  Circulating miRNA-7a, miRNA-15a, miRNA-20a, miRNA-21, miRNA-29a, miRNA-92a, miRNA-200, miRNA-206: up-regulated
Plasma miRNAs [5]; 3-h, 125 mg δ-tocotrienol
  plasma miR122a: 166%
  plasma miR-1: 78%
  plasma miR-7: 94%
  plasma miR-9: 88%
  plasma miR-15b: 110%
  plasma miR-17-5p: 106%
  plasma miR-19a: 95%
  plasma miR-19b: 91%
  plasma miR-24: 77%
  plasma miR-26a: 80%
  plasma miR-34a: 72%
  plasma miR-106a: 74%
  plasma miR-107: 156%
  plasma miR-132: 199%
  plasma miR-143: 63%
  plasma miR-145: 54%
  plasma miR-148a: 208%
  plasma miR-181a: 48%
  plasma miR-182: 76%
  plasma miR-192: 28%
  plasma miR-194: 50%
  plasma miR-196a: 65%
  plasma miR-199a: 81%
  plasma miR-204: 45%
  plasma miR-205: 39%
  plasma miR-222: 55%
  plasma miR-342: 70%
Plasma miRNAs [5]; 6-h, 500 mg δ-tocotrienol
  plasma miR122a: 196%
  plasma miR-1: 63%
  plasma miR-7: 85%
  plasma miR-9: 44%
  plasma miR-15b: 132%
  plasma miR-17-5p: 168%
  plasma miR-19a: 36%
  plasma miR-19b: 70%
  plasma miR-24: 45%
  plasma miR-26a: 62%
  plasma miR-34a: 59%
  plasma miR-106a: 56%
  plasma miR-107: 173%
  plasma miR-132: 145%
  plasma miR-143: 36%
  plasma miR-145: 44%
  plasma miR-148a: 233%
  plasma miR-181a: 21%
  plasma miR-182: 64%
  plasma miR-192: 21%
  plasma miR-194: 21%
  plasma miR-196a: 43%
  plasma miR-199a: 65%
  plasma miR-204: 41%
  plasma miR-205: 45%
  plasma miR-222: 51%
  plasma miR-342: 52%
Plasma miRNAs [5]; [11]
  expression of miR-107, miR-122a, and miR-132: up-regulated
  gene expression of miR-34a: down-regulated
[6]
  adiponectin, TGF-β1, and leptin: up-regulation
  eight cytokines: down-regulation
[7]; 40 μM
  chymotrypsin-like activity of 20S rabbit muscle proteasome: inhibition
[7]; 80 μM
  chymotrypsin-like activity of 20S rabbit muscle proteasome: activation
TNF-α [8]
  effect on secretion of TNF-α: inhibition
TNF-α [9]
  effect on secretion of TNF-α: activation
Hela cells
  IC50: 5 µM
  percentage of control at IC50 dose: 45%
Hela cells; 48 h
  effective dose: 20 µM
  percentage of control at effective dose: 18%
  value at effective dose: 8.3 ± 2.1
Prostate cancer cells
  IC50: 10 µM
  percentage of control at IC50 dose: 39%
Prostate cancer cells; 48 h
  effective dose: 20 µM
  percentage of control at effective dose: 35%
  value at effective dose: 12.3 ± 1.5
Melanoma cells
  IC50: 10 µM
  effective dose: 20 µM
  percentage of control at IC50 dose: 50%
  percentage of control at effective dose: 37%
T-cells (Jurkat)
  IC50: 20 µM
  percentage of control at IC50 dose: 32%
People with T2DM; [12]
  Fasting Glucose, Post-dose, percentage of control (pre-dose) in parentheses: 93%
  MDA, Post-dose: 3.22 µmol/L
  MDA, Post-dose, percentage of control (pre-dose) in parentheses: 89%
  hs-CRP, Post-dose: 3.10 mg/L
  hs-CRP, Post-dose, percentage of control (pre-dose) in parentheses: 88%
People with T2DM; serum, two capsules/d for 24-weeks (δ-tocotrienol 250 mg, vitamin D3 5000 IU, resveratrol 250 mg per capsule)
  Fasting Glucose, Post-dose: 6.85 mmol/L
People with T2DM; two capsules/d for 24-weeks
  Fasting HbA1c, Post-dose: 7.79%
  Fasting HbA1c, Post-dose, percentage of control (pre-dose) in parentheses: 92%
  HOMA-IR, Post-dose: 4.51
  HOMA-IR, Post-dose, percentage of control (pre-dose) in parentheses: 86%
